Values quoted from earlier work, collected in patent publication US11066478B2, “Intravesical therapy for bladder cancer” (PHOTOCURE ASA, priority 2015, dated 2021).

How the values were obtained:
bladder cancer = conditions: patients who underwent cystectomy for bladder cancer, HAL-guided TUR prior to cystectomy
NMIBC = conditions: patients with NMIBC

In the case of `CCCCCCOC(=O)CCC(=O)CN` [HAL, n-hexyl 5-amino-4-oxo-pentanoate], the “3-year overall survival (OS)” value (bladder cancer; comparison 56.6%) is listed as 65.0%, the “3-year recurrence-free survival (RFS)” value (bladder cancer; white light TUR alone 58.2%) is listed as 69.8% and the “rate of residual tumor after TUR” value (NMIBC; HAL-guided TUR) is listed as “reduced the rate of residual tumor”. For the same molecule, the “recurrence free survival (RFS) rates” value (NMIBC; HAL-guided TUR compared to white light TUR alone) was “superior recurrence free survival (RFS) rates” and the “detection of papillary tumors and flat carcinoma-in-situ (CIS) lesions” value (NMIBC; HAL-guided cystoscopy and TUR versus white light alone) was “increased detection”.
